This note sets out measurements from US11279697B2, “Aromatic derivative, preparation method for same, and medical applications thereof” (BIOARDIS LLC, priority 2017, dated 2022).

This test has as its target human FGFR4 protein (460-802 amino acids) (Homo sapiens (Human), UniProt P22455). The test can be described thus: FGFR4 Activity Inhibition Test (HTRF KinEASE-TK in vitro kinase assay). In kind it is biochemical. The following applies: compound-enzyme incubation 60 min at room temperature, kinase reaction 37° C. 40 min, 10 concentration points. Here is the method: The influence of the compound of the present invention on the activity of the tyrosine kinase FGFR4 was evaluated by an in vitro kinase assay experiment. The experimental method is summarized as follows: A HTRF® KinEASE™-TK 20000 tests kinase assay kit from CISBIO Corp. was used. The kit provided a biotin-labeled substrate, an EU-labeled phosphorylation site-specific antibody, and XL665-labeled avidin and a related buffer. FGFR4 phosphorylated the substrate, Eu-Ab identified the phosphorylated substrate, and XL665-SA binded to the biotin on the substrate, making Eu get closer to XL665, thus generating the HTRF signal. Changes in the activity of kinase was detected by reading the intensity of the HTRF signal. In the kinase assay experiment, there were mainly two steps of reaction: kinase reaction and assay reaction, respectively. In the kinase reaction, the kinase consumed ATP to phosphorylate the substrate, and at the same time produced a substrate containing a phosphate group. In the assay reaction, an assay reagent was added to terminate the kinase reaction. At the same time, the specific antibody and the XL665-labeled avidin in the assay reagent were binded to the phosphate group on the substrate and biotin respectively to generate HTRF signals. The signal intensity was directly proportional to the phosphorylation level of the substrate, and thereby the activity of the kinase FGFR4 could be quantitatively assayed. During the assay, the binding and incubation of the compound with the enzyme was carried out at room temperature for 60 min. The kinase reaction was carried out at a constant temperature of 37° C. for 40 min. […] The kinase substrates were TK (commercially available from Cisbio) and ATP (Sigma). The optical signals were read by a microplate reader TECAN Spark 10M plate reader (TECAN). The kinase reaction buffer comprised 1× Enzymatic buffer (CISBIO) 5 mM MgCl2 (Sigma) and 1 mM DTT (Sigma). […] First, the compound was dissolved and diluted with 100% DMSO into a 96-well plate at 3 concentrations: 4 mM, 40 μM, and 0.4 μM. […] Each concentration point was provided with two copy holes (starting point 10 μM, 3-fold dilution). First, 6 μL of the kinase solution was added into the 384-well assay plate, mixed uniformly and then incubated at room temperature for 60 min. Then 4 μL of the substrate reaction solution was added, and the total reaction volume was 10 μL. […] Subsequently, 10 μL of the kinase assay reagent was added and the reaction was terminated. Then the numerical values were read on the TECAN plate reader. The inhibition percentage was calculated based on the following formula: % inhibition=[1−(RLUcompound−RLUmin)/(RLUmax−RLUmin)]×100 wherein RLUcompound is the luminescence reading at the given compound concentration, RLUmin is the luminescence reading without the addition of kinase, and RLUmax is the luminescence reading without the addition of the compound. IC50 of the compound was calculated by the XLfit program in Excel.

Chain of human FGFR4 protein (460-802 amino acids) (P22455 460-802): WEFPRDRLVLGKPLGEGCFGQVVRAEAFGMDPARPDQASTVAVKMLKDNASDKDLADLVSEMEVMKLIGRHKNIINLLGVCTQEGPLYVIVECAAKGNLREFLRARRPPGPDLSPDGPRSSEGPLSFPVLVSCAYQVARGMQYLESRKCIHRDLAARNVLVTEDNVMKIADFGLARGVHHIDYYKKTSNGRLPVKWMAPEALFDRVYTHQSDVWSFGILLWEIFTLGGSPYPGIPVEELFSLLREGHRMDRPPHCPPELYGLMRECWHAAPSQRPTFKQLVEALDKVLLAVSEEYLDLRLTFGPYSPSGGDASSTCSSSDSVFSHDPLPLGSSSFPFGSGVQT

In general, IC50 refers to the concentration that inhibits the measured activity by half. `C=CC(=O)Nc1ccc(N2CCOCC2)cc1-c1n[nH]c2c1CCC(c1c(Cl)c(OC)cc(OC)c1Cl)=C2` [Compound 300, N-(2-(6-(2,6-dichloro-3,5-dimethoxyphenyl)-4,5-dihydro-1H-indazol-3-yl)-4-morpholinophenyl)acrylamide] had an IC50 of 504 nM. This counts as sub-micromolar.
